Results as given in PMC12177760, “In Silico Discovery of a Novel Antiviral Scaffold for SARS-CoV‑2 Targeting the Spike Glycoprotein through the Fatty Acid Binding Pocket” (ACS Omega, 2025).

What was measured:
Vero E6 cells = details: 200 μM
[1] = test system: SARS-CoV-2 original Wuhan strain (INMI1 P4) in Vero E6 cells; assay: microbe, parasite or virus in culture; assay type: cell-based; details: for inhibition at 33 µM: Severe acute respiratory syndrome coronavirus 2, Vero C1008, 72 h; for inhibition at 33 µM / inhibition at 22 µM: read-out: inhibition of viral induced CPE; for inhibition at 22 µM: Severe acute respiratory syndrome coronavirus 2, Vero C1008
in vitro = details: African green monkey
SARS-CoV-2 Wuhan strain [2] = assay type: cell-based
[3] = target: S-ACE2 interaction (SARS-CoV-2 S protein trimer, Wuhan strain, with biotinylated-ACE2) (Severe acute respiratory syndrome coronavirus 2, UniProt P0DTC2); assay: biochemical; assay type: binding; details: for inhibition of the S-ACE2 interaction: 200 μM
RBD-ACE2 binding = details: ref not given, cited from earlier work
SARS-CoV-2 Wuhan strain [4] = assay type: cell-based; remark: listed apart in the source

**Q.** What does the source list for `CC(NC(=O)CCC(=O)N1CCC(c2ccccc2)=N1)c1ccc(-n2cncn2)cc1` (stereo not shown) [compound 17]?
**A.** cytotoxicity (Vero E6 cells): strong cytotoxicity; reduction in viral induced CPE ([1]; 2.5 μM): over 10%; inhibition at 33 µM [1]: 23%; CC50 (in vitro): 90 µM; decrease in the number of infectious virions released (SARS-CoV-2 Wuhan strain [2]): 81%; inhibition at 200 µM [3]: ~20%; inhibition of the S-ACE2 interaction [3]: surpassed PEA

**Q.** Which “reduction in viral induced CPE” value ([1]; 67 μM) does the source give for `CCn1c2ccccc2c2cc(NC(=O)c3ccc(OCC(N)=O)cc3)ccc21` [compound 4] here?
**A.** over 10%

**Q.** And the inhibition at 200 µM [3]?
**A.** 28%

**Q.** For `CC(NC(=O)CCC(=O)N1CCN(c2ccccc2)CC1)c1ccc(-n2cncn2)cc1` (stereo not shown) [compound 31], which inhibition at 33 µM [1] is on record?
**A.** 8%

**Q.** Which inhibition at 33 µM [1] does the source give for `Cc1nc(-c2ccc(C(C)NC(=O)CCC(=O)N3CCC(c4ccccc4)=N3)cc2)cs1` (stereo not shown) [compound 20] here?
**A.** 34%

**Q.** What does the source list for `CCCCCCCCCCCCCCCC(=O)NCCO` [PEA, palmitoylethanolamide, reference compound]?
**A.** inhibition at 200 µM [3]: 17%; reduction of RBD binding with ACE2 (RBD-ACE2 binding): ~50%

**Q.** Which inhibition at 200 µM [3] does the source give for `CS(=O)(=O)N1CCCc2cc(-c3csc(-c4cccc(C(N)=O)c4)n3)ccc21` [compound 7] here?
**A.** 20%

**Q.** Which results are given for `Cc1cccc(OCC(=O)N2CC=C(c3c[nH]c4ccccc34)CC2)c1C` [compound 15]?
**A.** inhibition at 22 µM [1]: 10%; inhibition at 200 µM [3]: 20%

**Q.** For `CC(NC(=O)CCC(=O)N1CCC(c2ccccc2)=N1)c1ccc(-c2ccccc2)cc1` (stereo not shown) [compound 32], which inhibition at 33 µM [1] is on record?
**A.** 27%

**Q.** Which “antiviral activity (qualitative structure-activity relationship, CPE)” value [1] does the source give for `Cc1ccc(C(C)N(C)C(=O)CCC(=O)N2CCC(c3ccccc3)=N2)cc1` (stereo not shown) [compound 27] here?
**A.** activity maintained

**Q.** With `O=C(Nc1nc(-c2ccc3c(c2)CCC3)cs1)c1ccc(CSc2nnc[nH]2)cc1` [compound 12] as the compound, how does the “inhibition of the S-ACE2 interaction” value [3] read?
**A.** surpassed PEA

**Q.** With `CC(c1ccc(-n2cncn2)cc1)N(C)C(=O)CCC(=O)N1CCC(c2ccccc2)=N1` (stereo not shown) [compound 36] as the compound, how does the inhibition at 33 µM [1] read?
**A.** 91%

**Q.** And the EC50 ([1]; Severe acute respiratory syndrome coronavirus 2, Vero C1008, read-out: EC50 (inhibition of SARS-CoV-2-induced CPE))?
**A.** 0.29 µM

**Q.** What about the “PFU/mL, drug” value (SARS-CoV-2 Wuhan strain [2]) of the same compound?
**A.** 2.49 × 10^7 PFU/mL

**Q.** And the “reduction of replication-capable lytic virions (TCID50)” value (SARS-CoV-2 Wuhan strain [2])?
**A.** 90%

**Q.** And the “detected viral genomic copies” value (SARS-CoV-2 Wuhan strain [4])?
**A.** 16.9 copies/20 μL

**Q.** What about the “reduction in number of viral genome copies in the supernatant” value (SARS-CoV-2 Wuhan strain [4]; 33 μM) of the same compound?
**A.** 89%

**Q.** With `CC(OC(=O)CCC(=O)N1CCC(c2ccccc2)=N1)c1ccc(-n2cncn2)cc1` (stereo not shown) [compound 34] as the compound, how does the inhibition at 33 µM [1] read?
**A.** 19%

**Q.** For `CC(=O)c1ccc(N2CCN(Cn3nc4cc(C)c5ccccc5n4c3=S)CC2)cc1` [compound 1], which inhibition at 22 µM [1] is on record?
**A.** 10%

**Q.** Which inhibition at 33 µM [1] does the source give for `N#Cc1ccc(C2(NC(=O)CCC(=O)N3CCC(c4ccccc4)=N3)CC2)cc1` [compound 35] here?
**A.** 16%

**Q.** For `O=C(CCc1nc2ccccc2s1)N1CCC(CCc2ccc(O)cc2)CC1` [compound 9], which inhibition at 200 µM [3] is on record?
**A.** 20%

**Q.** What does the source list for `CCCCC/C=C\C/C=C\CCCCCCCC(=O)O` [LA, linoleic acid, reference compound]?
**A.** inhibition at 200 µM [3]: 84%; inhibition of the RBD-ACE2 binding (RBD-ACE2 binding; 8.9 mM, in vitro assays): 100%
